According to patent US20170037028A1 (BAYER PHARMA AKTIENGESELLSCHAFT, priority 2013, published 2017):
pIC50: −log10 of the molar value. Where two headings read alike, the source gives them in different places.

Molecular target: T1, GLUT1 (Homo sapiens, UniProt P11166)
T1 sequence (P11166 1-492): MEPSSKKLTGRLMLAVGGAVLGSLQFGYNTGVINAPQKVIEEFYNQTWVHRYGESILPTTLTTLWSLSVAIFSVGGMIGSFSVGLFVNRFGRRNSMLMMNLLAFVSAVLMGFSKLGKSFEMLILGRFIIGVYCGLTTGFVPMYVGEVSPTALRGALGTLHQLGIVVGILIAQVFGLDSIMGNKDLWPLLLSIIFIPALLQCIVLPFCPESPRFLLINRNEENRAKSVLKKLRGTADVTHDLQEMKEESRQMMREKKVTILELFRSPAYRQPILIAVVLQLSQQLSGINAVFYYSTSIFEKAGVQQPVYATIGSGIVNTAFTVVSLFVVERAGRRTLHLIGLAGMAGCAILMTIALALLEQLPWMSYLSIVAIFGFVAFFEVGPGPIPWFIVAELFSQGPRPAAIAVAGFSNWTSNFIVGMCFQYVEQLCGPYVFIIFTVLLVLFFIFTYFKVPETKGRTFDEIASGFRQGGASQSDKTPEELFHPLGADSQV
Experiment: Indirect measurement of GLUT1 activity by quantification of intracellular ATP levels (glucose induced ATP increase)
Type: cell-based
Parameters: endogenous in cells; host or cells: DLD1 or CHO-K1
Details: read-out: IC50 regarding glucose induced ATP increase (GLUT1 inhibition)
Method in brief: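 DLD1 or CHO-K1 cells were starved overnight in glucose-free medium with 1% FCS, then combined with an oxidative phosphorylation inhibitor. GLUT1 activity was read as glucose-induced ATP increase, GLUT2 as fructose-induced. Intracellular ATP was quantified by CellTiter-Glo luminescence.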

| SMILES | pIC50 | pIC50 (DLD1 cells, 0.1 mM glucose, 1 μM Rotenone, 15 min, CellTiter-Glo ATP readout, IC50 values standardized to cytochalasin B IC50 values) |
| --- | --- | --- |
| COc1ccc(CCCn2nc(C)c(NC(=O)c3cc(C(N)=O)nc4ccccc34)c2C)cc1 [Example 284, N^4-{1-[3-(4-methoxyphenyl)propyl]-3,5-dimethyl-1H-pyrazol-4-yl}quinoline-2,4-dicarboxamide] | 8.05 |  |
| Cc1nn(Cc2ccncc2C#N)c(C)c1NC(=O)c1cc(C(N)=O)nc2ccccc12 [Example 286, N^4-{1-[(3-cyanopyridin-4-yl)methyl]-3,5-dimethyl-1H-pyrazol-4-yl}quinoline-2,4-dicarboxamide] | 7.45 |  |
| Cc1c(NC(=O)c2cc(C(N)=O)nc3cc(F)c(Cl)cc23)c(C(F)(F)F)nn1Cc1ccncc1C#N [Example 287, 6-chloro-N^4-{1-[(3-cyanopyridin-4-yl)methyl]-5-methyl-3-(trifluoromethyl)-1H-pyrazol-4-yl}-7-fluoroquinoline-2,4-dicarboxamide] | 8.32 |  |
| Cc1c(NC(=O)c2cc(C(N)=O)nc3ccccc23)c(C(F)(F)F)nn1Cc1ccncc1C#N [Example 288, N^4-{1-[(3-cyanopyridin-4-yl)methyl]-5-methyl-3-(trifluoromethyl)-1H-pyrazol-4-yl}quinoline-2,4-dicarboxamide] | 7.40 |  |
| Cc1c(NC(=O)c2cc(C(N)=O)nc3ccccc23)c(C(F)(F)F)nn1Cc1ccc(C#N)nc1 [Example 289, N^4-{1-[(6-cyanopyridin-3-yl)methyl]-5-methyl-3-(trifluoromethyl)-1H-pyrazol-4-yl}quinoline-2,4-dicarboxamide] | 7.67 |  |
| Cc1c(NC(=O)c2cc(C(N)=O)nc3cc(F)ccc23)c(C(F)(F)F)nn1Cc1ccc(C#N)nc1 [Example 290, N^4-{1-[(6-cyanopyridin-3-yl)methyl]-5-methyl-3-(trifluoromethyl)-1H-pyrazol-4-yl}-7-fluoroquinoline-2,4-dicarboxamide] |  | 7.50 |
| Cc1c(NC(=O)c2cc(C(N)=O)nc3cccc(F)c23)c(C(F)(F)F)nn1Cc1ccc(C#N)nc1 [Example 291, N^4-{1-[(6-cyanopyridin-3-yl)methyl]-5-methyl-3-(trifluoromethyl)-1H-pyrazol-4-yl}-5-fluoroquinoline-2,4-dicarboxamide] | 8.16 |  |
| Cc1nn(Cc2ccc(C#N)nc2)c(C)c1NC(=O)c1cc(C(N)=O)nc2cc(F)ccc12 [Example 292, N^4-{1-[(6-cyanopyridin-3-yl)methyl]-3,5-dimethyl-1H-pyrazol-4-yl}-7-fluoroquinoline-2,4-dicarboxamide] | 7.77 |  |
| Cc1nn(CCOc2ccc(C#N)cc2)c(C)c1NC(=O)c1cc(C(N)=O)nc2cc(F)c(Cl)cc12 [Example 294, 6-chloro-N^4-{1-[2-(4-cyanophenoxy)ethyl]-3,5-dimethyl-1H-pyrazol-4-yl}-7-fluoroquinoline-2,4-dicarboxamide] | 8.18 |  |
| Cc1nn(CCOc2ccc(C#N)cc2)c(C)c1NC(=O)c1cc(C(N)=O)nc2ccccc12 [Example 295, N^4-{1-[2-(4-cyanophenoxy)ethyl]-3,5-dimethyl-1H-pyrazol-4-yl}quinoline-2,4-dicarboxamide] | 5.99 |  |
| Cc1nn(Cc2ccc(C#N)cc2F)c(C)c1NC(=O)c1cc(C(N)=O)nc2ccc(Br)cc12 [Example 299, 6-bromo-N^4-[1-(4-cyano-2-fluorobenzyl)-3,5-dimethyl-1H-pyrazol-4-yl]quinoline-2,4-dicarboxamide] | 8.17 |  |
| Cc1c(NC(=O)c2cc(C(N)=O)nc3cc(F)c(F)cc23)c(C(F)(F)F)nn1Cc1ccc(C#N)cc1F [Example 304, N^4-[1-(4-cyano-2-fluorobenzyl)-5-methyl-3-(trifluoromethyl)-1H-pyrazol-4-yl]-6,7-difluoroquinoline-2,4-dicarboxamide] | 8.44 |  |
| Cc1c(NC(=O)c2cc(C(N)=O)nc3cccc(F)c23)c(C(F)(F)F)nn1Cc1ccc(C#N)cc1F [Example 306, N^4-[1-(4-cyano-2-fluorobenzyl)-5-methyl-3-(trifluoromethyl)-1H-pyrazol-4-yl]-5-fluoroquinoline-2,4-dicarboxamide] | 8.33 |  |
| Cc1c(NC(=O)c2cc(C(N)=O)nc3cc(F)c(Cl)cc23)c(C#N)nn1Cc1ccc(F)cc1 [Example 307, 6-chloro-N^4-[3-cyano-1-(4-fluorobenzyl)-5-methyl-1H-pyrazol-4-yl]-7-fluoroquinoline-2,4-dicarboxamide] | 8.29 |  |
| CCc1nn(Cc2ccc(C#N)cc2)c(CC)c1NC(=O)c1cc(C(F)(F)F)nc2ccc(Br)cc12 [Example 309, 6-bromo-N-[1-(4-cyanobenzyl)-3,5-diethyl-1H-pyrazol-4-yl]-2-(trifluoromethyl)quinoline-4-carboxamide] | 6.44 |  |

Now from value to compound, other results behind:

| pIC50 | SMILES | pIC50 (DLD1 cells, 0.1 mM glucose, 1 μM Rotenone, 15 min, CellTiter-Glo ATP readout, IC50 values standardized to cytochalasin B IC50 values) |
| --- | --- | --- |
| 8.96 | COc1ccc(Cn2nc(C(F)(F)F)c(NC(=O)c3cc(C(N)=O)nc4ccccc34)c2C)cn1 [Example 280, N^4-{1-[(6-methoxypyridin-3-yl)methyl]-5-methyl-3-(trifluoromethyl)-1H-pyrazol-4-yl}quinoline-2,4-dicarboxamide] |  |
| 8.89 | COc1ccc(Cn2nc(C(F)(F)F)c(NC(=O)c3cc(C(N)=O)nc4cc(F)c(Cl)cc34)c2C)cn1 [Example 281, 6-chloro-7-fluoro-N^4-{1-[(6-methoxypyridin-3-yl)methyl]-5-methyl-3-(trifluoromethyl)-1H-pyrazol-4-yl}quinoline-2,4-dicarboxamide] |  |
| 8.49 | COc1ccc(Cn2nc(C)c(NC(=O)c3cc(C(N)=O)nc4ccccc34)c2C)cn1 [Example 282, N^4-{1-[(6-methoxypyridin-3-yl)methyl]-3,5-dimethyl-1H-pyrazol-4-yl}quinoline-2,4-dicarboxamide] |  |
| 8.92 | COc1ccc(Cn2nc(C)c(NC(=O)c3cc(C(N)=O)nc4cc(F)c(Cl)cc34)c2C)cn1 [Example 283, 6-chloro-7-fluoro-N^4-{1-[(6-methoxypyridin-3-yl)methyl]-3,5-dimethyl-1H-pyrazol-4-yl}quinoline-2,4-dicarboxamide] |  |
| 8.47 | Cc1nn(Cc2ccncc2C#N)c(C)c1NC(=O)c1cc(C(N)=O)nc2cc(F)c(Cl)cc12 [Example 285, 6-chloro-N^4-{1-[(3-cyanopyridin-4-yl)methyl]-3,5-dimethyl-1H-pyrazol-4-yl}-7-fluoroquinoline-2,4-dicarboxamide] |  |
| 9.00 | Cc1nn(Cc2ccc(C#N)nc2)c(C)c1NC(=O)c1cc(C(N)=O)nc2ccc(Br)cc12 [Example 293, 6-bromo-N^4-{1-[(6-cyanopyridin-3-yl)methyl]-3,5-dimethyl-1H-pyrazol-4-yl}quinoline-2,4-dicarboxamide] |  |
| 9.22 | Cc1nn(Cc2ccc(C#N)cc2F)c(C)c1NC(=O)c1cc(C(N)=O)nc2cc(F)c(Cl)cc12 [Example 296, 6-chloro-N^4-[1-(4-cyano-2-fluorobenzyl)-3,5-dimethyl-1H-pyrazol-4-yl]-7-fluoroquinoline-2,4-dicarboxamide] |  |
| 9.10 | Cc1nn(Cc2ccc(C#N)cc2F)c(C)c1NC(=O)c1cc(C(N)=O)nc2ccccc12 [Example 297, N^4-[1-(4-cyano-2-fluorobenzyl)-3,5-dimethyl-1H-pyrazol-4-yl]quinoline-2,4-dicarboxamide] |  |
| 9.00 | Cc1nn(Cc2ccc(C#N)cc2F)c(C)c1NC(=O)c1cc(C(N)=O)nc2cc(F)c(F)cc12 [Example 298, N^4-[1-(4-cyano-2-fluorobenzyl)-3,5-dimethyl-1H-pyrazol-4-yl]-6,7-difluoroquinoline-2,4-dicarboxamide] |  |
| 9.30 | Cc1nn(Cc2ccc(C#N)cc2F)c(C)c1NC(=O)c1cc(C(N)=O)nc2cc(F)ccc12 [Example 300, N^4-[1-(4-cyano-2-fluorobenzyl)-3,5-dimethyl-1H-pyrazol-4-yl]-7-fluoroquinoline-2,4-dicarboxamide] |  |
| 9.30 | Cc1nn(Cc2ccc(C#N)cc2F)c(C)c1NC(=O)c1cc(C(N)=O)nc2cccc(F)c12 [Example 301, N^4-[1-(4-cyano-2-fluorobenzyl)-3,5-dimethyl-1H-pyrazol-4-yl]-5-fluoroquinoline-2,4-dicarboxamide] |  |
| 8.96 | Cc1c(NC(=O)c2cc(C(N)=O)nc3ccccc23)c(C(F)(F)F)nn1Cc1ccc(C#N)cc1F [Example 302, N^4-[1-(4-cyano-2-fluorobenzyl)-5-methyl-3-(trifluoromethyl)-1H-pyrazol-4-yl]quinoline-2,4-dicarboxamide] |  |
| 8.74 | Cc1c(NC(=O)c2cc(C(N)=O)nc3cc(F)c(Cl)cc23)c(C(F)(F)F)nn1Cc1ccc(C#N)cc1F [Example 303, 6-chloro-N^4-[1-(4-cyano-2-fluorobenzyl)-5-methyl-3-(trifluoromethyl)-1H-pyrazol-4-yl]-7-fluoroquinoline-2,4-dicarboxamide] |  |
| 8.85 | Cc1c(NC(=O)c2cc(C(N)=O)nc3ccc(Br)cc23)c(C(F)(F)F)nn1Cc1ccc(C#N)cc1F [Example 305, 6-bromo-N^4-[1-(4-cyano-2-fluorobenzyl)-5-methyl-3-(trifluoromethyl)-1H-pyrazol-4-yl]quinoline-2,4-dicarboxamide] |  |
| 8.57 | Cc1c(NC(=O)c2cc(C(N)=O)nc3ccccc23)c(C#N)nn1Cc1ccc(F)cc1 [Example 308, N^4-[3-cyano-1-(4-fluorobenzyl)-5-methyl-1H-pyrazol-4-yl]quinoline-2,4-dicarboxamide] |  |
